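All cell lines were grown in 96-well plates and treated with compound for 48 hours. Here, GI50 denotes the concentration required for 50% inhibition of growth.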 Activity calls are given as the source filed them. Rule as the data show it: active = GI50 up to about 1.1 µM and inactive = higher.
Columns and labels:
Experiment in all cases: NCI-60 cell line screen, 48 h
HOP-62 = test system: HOP-62
DMS-114 = test system: DMS-114
SW-620 = test system: SW-620
DMS-273 = test system: DMS-273
SF-539 = test system: SF-539
COLO 205 = test system: COLO 205
ACHN = test system: ACHN
SF-268 = test system: SF-268
A498 = test system: A498
SK-MEL-5 = test system: SK-MEL-5
OVCAR-3 = test system: OVCAR-3
786-0 = test system: 786-0
KM12 = test system: KM12
LXFL 529 = test system: LXFL 529
CCRF-CEM = test system: CCRF-CEM
SNB-78 = test system: SNB-78
DLD-1 = test system: DLD-1
NCI-H522 = test system: NCI-H522
OVCAR-4 = test system: OVCAR-4
EKVX = test system: EKVX
MOLT-4 = test system: MOLT-4
XF498 = test system: XF498
A549 = test system: A549
RPMI-8226 = test system: RPMI-8226
HOP-92 = test system: HOP-92
SK-MEL-28 = test system: SK-MEL-28
CAKI-1 = test system: CAKI-1
Malme-3M = test system: Malme-3M
NCI-H460 = test system: NCI-H460
SK-OV-3 = test system: SK-OV-3
KM-20L2 = test system: KM-20L2
HL-60 = test system: HL-60
LOX IMVI = test system: LOX IMVI
UACC-257 = test system: UACC-257
NCI-H226 = test system: NCI-H226
HCT-15 = test system: HCT-15
HCC 2998 = test system: HCC 2998
HOP-18 = test system: HOP-18
TK-10 = test system: TK-10
SNB-19 = test system: SNB-19
UO-31 = test system: UO-31
HT-29 = test system: HT-29
OVCAR-5 = test system: OVCAR-5
SK-MEL-2 = test system: SK-MEL-2
K562 = test system: K562
SF-295 = test system: SF-295
U-251 = test system: U-251
NCI-H23 = test system: NCI-H23
M14 = test system: M14
OVCAR-8 = test system: OVCAR-8
RXF 393 = test system: RXF 393
HCT-116 = test system: HCT-116
SN12C = test system: SN12C
SNB-75 = test system: SNB-75
UACC-62 = test system: UACC-62
SR = test system: SR
M19-MEL = test system: M19-MEL
IGROV-1 = test system: IGROV-1

With O=c1ncccn1C1C=C(CO)C(O)C1O (configuration not stated) the GI50 (HOP-62) was > 50 µM (inactive), the GI50 (DMS-114) was > 50 µM (inactive) and the GI50 (SW-620) was > 50 µM (inactive). The GI50 (DMS-273) was > 50 µM (inactive), the GI50 (SF-539) was > 50 µM (inactive) and the GI50 (COLO 205) was > 50 µM (inactive). The GI50 (ACHN) was > 50 µM (inactive), the GI50 (SF-268) was > 50 µM (inactive) and the GI50 (A498) was > 50 µM (inactive). For the same molecule, the GI50 (SK-MEL-5) was > 50 µM (inactive), the GI50 (OVCAR-3) was > 50 µM (inactive) and the GI50 (786-0) was > 50 µM (inactive). For the same molecule, the GI50 (KM12) was > 50 µM (inactive), the GI50 (LXFL 529) was > 50 µM (inactive) and the GI50 (CCRF-CEM) was > 50 µM (inactive). The GI50 (SNB-78) was > 50 µM (inactive), the GI50 (DLD-1) was > 50 µM (inactive) and the GI50 (NCI-H522) was > 50 µM (inactive). For the same molecule, the GI50 (OVCAR-4) was > 50 µM (inactive), the GI50 (EKVX) was > 50 µM (inactive) and the GI50 (MOLT-4) was > 50 µM (inactive). The GI50 (XF498) was > 50 µM (inactive), the GI50 (A549) was > 50 µM (inactive) and the GI50 (RPMI-8226) was > 50 µM (inactive). The GI50 (HOP-92) was > 50 µM (inactive), the GI50 (SK-MEL-28) was > 50 µM (inactive) and the GI50 (CAKI-1) was > 50 µM (inactive). For the same molecule, the GI50 (Malme-3M) was > 50 µM (inactive), the GI50 (NCI-H460) was > 50 µM (inactive) and the GI50 (SK-OV-3) was > 50 µM (inactive). The GI50 (KM-20L2) was > 50 µM (inactive), the GI50 (HL-60) was > 50 µM (inactive) and the GI50 (LOX IMVI) was > 50 µM (inactive). For the same molecule, the GI50 (UACC-257) was > 50 µM (inactive), the GI50 (NCI-H226) was > 50 µM (inactive) and the GI50 (HCT-15) was over 50 µM. The GI50 (HCC 2998) was > 50 µM (inactive), the GI50 (HOP-18) was > 50 µM (inactive) and the GI50 (TK-10) was > 50 µM (inactive). For the same molecule, the GI50 (SNB-19) was > 50 µM (inactive), the GI50 (UO-31) was > 50 µM (inactive) and the GI50 (HT-29) was > 50 µM (inactive). The GI50 (OVCAR-5) was > 50 µM (inactive), the GI50 (SK-MEL-2) was > 50 µM (inactive) and the GI50 (K562) was > 50 µM (inactive). For the same molecule, the GI50 (SF-295) was > 50 µM (inactive), the GI50 (U-251) was > 50 µM (inactive) and the GI50 (NCI-H23) was > 50 µM (inactive). The GI50 (M14) was > 50 µM (inactive).

In the case of Cc1cc(C)nc(NS(=O)(=O)c2ccc(Nc3c4ccccc4nc4c(C(=O)Nc5ccc(S(=O)(=O)N=C(N)N)cc5)ccc(Cl)c34)cc2)n1, the GI50 (OVCAR-8) was 17.5 µM (inactive), the GI50 (RXF 393) was 18.2 µM (inactive) and the GI50 (HOP-62) was 23.2 µM (inactive). The GI50 (DMS-114) was 21.7 µM (inactive), the GI50 (HCT-116) was 21.9 µM (inactive) and the GI50 (DMS-273) was 32.1 µM (inactive). For the same molecule, the GI50 (SF-539) was 19.3 µM (inactive), the GI50 (SN12C) was 29.8 µM (inactive) and the GI50 (COLO 205) was 55 µM (inactive). The GI50 (ACHN) was 43.5 µM (inactive), the GI50 (SF-268) was 27.9 µM (inactive) and the GI50 (A498) was 34.6 µM (inactive). The GI50 (SK-MEL-5) was 98.6 µM (inactive), the GI50 (OVCAR-3) was 17.5 µM (inactive) and the GI50 (SNB-75) was 35.7 µM (inactive). For the same molecule, the GI50 (786-0) was 38.9 µM (inactive), the GI50 (KM12) was 42.7 µM (inactive) and the GI50 (LXFL 529) was 25.8 µM (inactive). For the same molecule, the GI50 (SNB-78) was 33.7 µM (inactive), the GI50 (DLD-1) was 33.1 µM (inactive) and the GI50 (NCI-H522) was 15.8 µM (inactive). The GI50 (OVCAR-4) was 23.9 µM (inactive), the GI50 (EKVX) was 56.4 µM (inactive) and the GI50 (MOLT-4) was 23.5 µM (inactive). For the same molecule, the GI50 (UACC-62) was 19.3 µM (inactive), the GI50 (XF498) was 24 µM (inactive) and the GI50 (A549) was > 100 µM (inactive). The GI50 (RPMI-8226) was 28.2 µM (inactive), the GI50 (SK-MEL-28) was > 10 µM (inactive) and the GI50 (CAKI-1) was 36.1 µM (inactive). For the same molecule, the GI50 (Malme-3M) was 33.6 µM (inactive), the GI50 (NCI-H460) was 53.1 µM (inactive) and the GI50 (SK-OV-3) was 22.9 µM (inactive). For the same molecule, the GI50 (KM-20L2) was 35.6 µM (inactive), the GI50 (SR) was 25.3 µM (inactive) and the GI50 (HL-60) was 24.1 µM (inactive). For the same molecule, the GI50 (M19-MEL) was 26 µM (inactive), the GI50 (LOX IMVI) was 19.4 µM (inactive) and the GI50 (UACC-257) was 64.3 µM (inactive). The GI50 (NCI-H226) was 21.9 µM (inactive), the GI50 (HCC 2998) was 20 µM (inactive) and the GI50 (HOP-18) was 18.7 µM (inactive). For the same molecule, the GI50 (TK-10) was 34.6 µM (inactive), the GI50 (SNB-19) was 20.4 µM (inactive) and the GI50 (UO-31) was 25.4 µM (inactive). The GI50 (HT-29) was 36.3 µM (inactive), the GI50 (OVCAR-5) was 41.2 µM (inactive) and the GI50 (K562) was 24.2 µM (inactive). For the same molecule, the GI50 (SF-295) was 47.2 µM (inactive), the GI50 (U-251) was 18.2 µM (inactive) and the GI50 (NCI-H23) was 19.7 µM (inactive). For the same molecule, the GI50 (M14) was 88.5 µM (inactive).

O=C1[C@@H]2C(c3ccc(Cl)cc3Cl)=NO[C@@H]2C(=O)N1c1ccc(Cc2ccc(N3C(=O)[C@H]4C(c5ccc(Cl)cc5Cl)=NO[C@H]4C3=O)cc2)cc1 was tested, and the GI50 (OVCAR-8) was 40.7 µM (inactive), the GI50 (RXF 393) was 13.6 µM (inactive) and the GI50 (HOP-62) was > 100 µM (inactive). The GI50 (IGROV-1) was 70 µM (inactive), the GI50 (DMS-114) was 39.5 µM (inactive) and the GI50 (SW-620) was 71.8 µM (inactive). For the same molecule, the GI50 (DMS-273) was > 100 µM (inactive), the GI50 (SF-539) was 52.7 µM (inactive) and the GI50 (SN12C) was 54 µM (inactive). The GI50 (COLO 205) was 50.9 µM (inactive), the GI50 (SF-268) was > 100 µM (inactive) and the GI50 (A498) was > 100 µM (inactive). The GI50 (SK-MEL-5) was 52.1 µM (inactive), the GI50 (OVCAR-3) was 61 µM (inactive) and the GI50 (SNB-75) was > 100 µM (inactive). For the same molecule, the GI50 (786-0) was 45.9 µM (inactive), the GI50 (KM12) was > 100 µM (inactive) and the GI50 (LXFL 529) was 15.6 µM (inactive). For the same molecule, the GI50 (CCRF-CEM) was 12.9 µM (inactive), the GI50 (SNB-78) was 46.8 µM (inactive) and the GI50 (DLD-1) was > 100 µM (inactive). The GI50 (OVCAR-4) was > 100 µM (inactive), the GI50 (EKVX) was > 100 µM (inactive) and the GI50 (MOLT-4) was 17.3 µM (inactive). The GI50 (UACC-62) was 71.6 µM (inactive), the GI50 (XF498) was > 100 µM (inactive) and the GI50 (A549) was > 100 µM (inactive). For the same molecule, the GI50 (RPMI-8226) was 21.2 µM (inactive), the GI50 (HOP-92) was 17.7 µM (inactive) and the GI50 (SK-MEL-28) was 67.1 µM (inactive). For the same molecule, the GI50 (CAKI-1) was 60.4 µM (inactive), the GI50 (Malme-3M) was 84.3 µM (inactive) and the GI50 (SK-OV-3) was > 100 µM (inactive). The GI50 (KM-20L2) was > 100 µM (inactive), the GI50 (HL-60) was 11.4 µM (inactive) and the GI50 (M19-MEL) was > 100 µM (inactive). For the same molecule, the GI50 (LOX IMVI) was 47.8 µM (inactive), the GI50 (UACC-257) was 41.6 µM (inactive) and the GI50 (NCI-H226) was > 100 µM (inactive). For the same molecule, the GI50 (HCT-15) was 46.6 µM, the GI50 (HCC 2998) was > 100 µM (inactive) and the GI50 (HOP-18) was > 100 µM (inactive). For the same molecule, the GI50 (TK-10) was 51.8 µM (inactive), the GI50 (UO-31) was > 100 µM (inactive) and the GI50 (HT-29) was > 100 µM (inactive). For the same molecule, the GI50 (OVCAR-5) was > 100 µM (inactive), the GI50 (SK-MEL-2) was > 100 µM (inactive) and the GI50 (K562) was 29.3 µM (inactive). For the same molecule, the GI50 (SF-295) was 74 µM (inactive), the GI50 (NCI-H23) was > 100 µM (inactive) and the GI50 (M14) was 37.7 µM (inactive).

Reference: ChEMBL document CHEMBL1201862, “PubChem BioAssay data set” (2004)
